Patent US9770026B2, “Substituted pyrimidine compound and uses thereof” (Shenyang Sinochem Agrochemicals R&D Co., Ltd., priority 2012, dated 2017)

Tests used:
[1] = tested on: Diamond back moth; assay: insecticidal activity against diamond back moth, airbrush spray; assay type: in vivo
Summary of the method: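 Airbrush leaf-disc spray test: both faces of 2 cm cabbage discs received 0.5 ml of test solution at 0.7 kg/cm^2. Solutions were made in acetone:methanol (1:1) and brought to concentration with 0.1% Tween 80 in water. Ten second-instar larvae per disc, triplicates, were held at 25° C and 60˜70% R.H., with mortality recorded at 72 hrs.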

[2] = tested on: armyworm; assay: bioactivity test against armyworm, airbrush spray; assay type: in vivo; settings: for control (test results against armyworm): 600 ppm
[3] = tested on: Green peach aphids (Myzus Persicae Sulzer); assay: bioactivity test against green peach aphid, airbrush foliar spray; assay type: in vivo; settings: for Insecticidal activity against peach aphid (%): contrastive test
Summary of the method: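 Aphids (15-30 per cabbage leaf disc) on moist filter paper were airbrush-sprayed at 10 psi, 0.5 mL, with compound from acetone:methanol (1:1) diluted in water with 0.1% tween 80. Held at 25±1 C, 60±5% RH; survivors counted after 48 hrs to give death rates.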

[4] = tested on: carmine spider mite; assay: bioactivity test against carmine spider mite, airbrush spray; assay type: in vivo
Summary of the method: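 Broadbean seedlings infested with adult mites were sprayed with compound (acetone/methanol stock diluted in 0.1% Tween 80 water) by airbrush at 0.7 kg/cm^2, 0.5 ml. Three replicates were run. Mortality was scored after 72 hrs.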

[5] = tested on: corn rust; assay: protectant activity in vivo against corn rust
[6] = tested on: wheat powdery mildew; assay: protectant activity in vivo against wheat powdery mildew
[7] = 100 ppm, mortality after 72 hrs
[8] = 600 ppm, mortality after 72 hrs
[9] = 10 ppm, death rate after 48 hrs
[10] = 100 ppm, death rate after 48 hrs
[11] = 600 ppm, death rate after 48 hrs

Cc1ncnc(NCCc2ccc(Oc3ccc(Cl)cc3)cc2)c1Cl [II-19]
50%: Insecticidal activity against diamond back moth (%) ([1]; 10 mg/L)
100%: Insecticidal activity against diamond back moth (%) ([1]; 100 mg/L) | Insecticidal activity against diamond back moth (%) ([1]; 600 mg/L) | control (test results against diamond back moth) [1, 7] | control (test results against diamond back moth) [1, 8] | control (test results against armyworm) ([2]; mortality after 72 h) | Insecticidal activity against peach aphid (%) ([3]; 10 mg/L) | Insecticidal activity against peach aphid (%) ([3]; 100 mg/L) | Insecticidal activity against peach aphid (%) ([3]; 600 mg/L) | control (test results against green peach aphid) [3, 9] | control (test results against green peach aphid) [3, 10] | control (test results against green peach aphid) [3, 11] | control against carmine spider mite [4, 7] | control against carmine spider mite [4, 8] | protectant activity against corn rust in vivo ([5]; 400 ppm) | protectant activity against wheat powdery mildew in vivo ([6]; 400 ppm)

CCc1ncnc(NCCc2ccc(Oc3ccc(C(F)(F)F)cc3)cc2)c1Cl.Cl [II-19334]
80 to 99%: pest or weed control at 100 ppm ([2]; 72 h, 100 ppm, mortality after 72 h) | pest or weed control at 2.5 ppm ([3]; Myzus persicae, foliar, 48 h, 2.5 ppm, death rate after 48 hrs) | pest or weed control at 2.5 ppm ([4]; Tetranychus cinnabarinus, 72 h, 2.5 ppm, mortality after 72 hrs)
84%: pest or weed control at 100 µg/mL ([2]; 72 h, 100 mg/L, read-out: Insecticidal activity against armyworm (%))
67%: Insecticidal activity against peach aphid (%) ([3]; 1.25 mg/L)
96%: Insecticidal activity against peach aphid (%) ([3]; 5 mg/L)
60%: pest or weed control at 1.6 µg/mL ([6]; Triticum aestivum, 168 h, read-out: control effect against wheat powdery mildew (%), 1.6 mg/L, protectant activity)
44%: pest or weed control at 10 µg/mL ([2]; 72 h, 10 mg/L, read-out: Insecticidal activity against armyworm (%))
100%: control (test results against diamond back moth) [1, 8] | pest or weed control at 100 ppm ([1]; 72 h, 100 ppm, mortality after 72 hrs, read-out: control (test results against diamond back moth)) | control (test results against armyworm) ([2]; mortality after 72 h) | pest or weed control at 600 µg/mL ([2]; 72 h, 600 mg/L, read-out: Insecticidal activity against armyworm (%)) | Insecticidal activity against peach aphid (%) ([3]; 10 mg/L) | Insecticidal activity against peach aphid (%) ([3]; 100 mg/L) | Insecticidal activity against peach aphid (%) ([3]; 600 mg/L) | control (test results against green peach aphid) [3, 9] | control (test results against green peach aphid) [3, 10] | control (test results against green peach aphid) [3, 11] | Insecticidal activity against carmine spider mite (% ) ([4]; 5 mg/L) | Insecticidal activity against carmine spider mite (% ) ([4]; 10 mg/L, contrastive test) | Insecticidal activity against carmine spider mite (% ) ([4]; 100 mg/L, contrastive test) | Insecticidal activity against carmine spider mite (% ) ([4]; 600 mg/L, contrastive test) | control against carmine spider mite ([4]; 10 ppm, mortality after 72 hrs) | control against carmine spider mite [4, 7] | control against carmine spider mite [4, 8] | pest or weed control at 5 ppm ([4]; Tetranychus cinnabarinus, 72 h, 5 ppm, mortality after 72 hrs) | protectant activity against corn rust in vivo ([5]; 400 ppm) | protectant activity against wheat powdery mildew in vivo ([6]; 25 ppm) | protectant activity against wheat powdery mildew in vivo ([6]; 100 ppm) | protectant activity against wheat powdery mildew in vivo ([6]; 400 ppm) | pest or weed control at 6.25 µg/mL ([6]; Triticum aestivum, 168 h, read-out: control effect against wheat powdery mildew (%), 6.25 mg/L, protectant activity) | pest or weed control at 25 µg/mL ([6]; Triticum aestivum, 168 h, read-out: control effect against wheat powdery mildew (%), 25 mg/L, protectant activity) | pest or weed control at 100 µg/mL ([6]; Triticum aestivum, 168 h, read-out: control effect against wheat powdery mildew (%), 100 mg/L, protectant activity) | pest or weed control at 400 µg/mL ([6]; Triticum aestivum, 168 h, read-out: control effect against wheat powdery mildew (%), 400 mg/L, protectant activity) | pest or weed control at 6.25 ppm ([6]; Triticum aestivum, 168 h, read-out: protectant activity against wheat powdery mildew in vivo, 6.25 ppm)
87%: Insecticidal activity against carmine spider mite (% ) ([4]; 2.5 mg/L)
83%: Insecticidal activity against peach aphid (%) ([3]; 2.5 mg/L)

Cc1ncnc(NCCc2ccc(Oc3cccc(C(F)(F)F)c3)nc2)c1Cl [III-21]
100%: control (test results against diamond back moth) [1, 8] | control (test results against armyworm) ([2]; mortality after 72 h) | control (test results against green peach aphid) [3, 11] | control against carmine spider mite [4, 8] | protectant activity against corn rust in vivo ([5]; 100 ppm) | protectant activity against corn rust in vivo ([5]; 400 ppm) | protectant activity against wheat powdery mildew in vivo ([6]; 400 ppm)
